Molecules are shown by their SMILES.

T1 sequence (P14902 whole entry): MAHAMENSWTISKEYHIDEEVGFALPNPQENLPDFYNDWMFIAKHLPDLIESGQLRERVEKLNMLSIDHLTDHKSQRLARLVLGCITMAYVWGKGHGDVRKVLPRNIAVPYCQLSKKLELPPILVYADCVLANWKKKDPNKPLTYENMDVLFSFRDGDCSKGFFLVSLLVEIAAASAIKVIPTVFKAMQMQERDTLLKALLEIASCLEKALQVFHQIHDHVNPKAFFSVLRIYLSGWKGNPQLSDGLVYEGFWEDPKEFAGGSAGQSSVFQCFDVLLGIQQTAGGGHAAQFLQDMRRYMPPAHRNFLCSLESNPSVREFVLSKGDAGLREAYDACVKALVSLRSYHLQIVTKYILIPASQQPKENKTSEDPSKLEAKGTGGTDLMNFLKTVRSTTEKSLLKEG

This assay has as its target T1, indoleamine 2, 3-dioxygenase (IDO1) (Homo sapiens, UniProt P14902).
T1 construct: human peripheral blood mononuclear cells (PBMC) (PB003F; host or cells: human PBMC stimulated with IFN-gamma and LPS
Briefly: PBMC IDO1 assay (kynurenine detection via mass spectrometry). It is filed as cell-based. The conditions noted are these: human PBMC stimulated with IFN-γ and LPS, 2 days, kynurenine by mass spectrometry; read-out: IDO1 PBMC pIC50 (converted). The method, boiled down: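 Human PBMCs (50,000/well) stimulated with IFN-γ 100 ng/ml and LPS 50 ng/ml were exposed to 11-point 3-fold compound dilutions for 2 days at 37 °C. Supernatant kynurenine was quantified by RapidFire MS relative to an internal standard; parallel CellTiter-Glo ATP luminescence measured cytotoxicity, with four-parameter curve fitting.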
For `CC(C)CS(=O)(=O)N1CCC(CC(NC(=O)c2ccc(Cl)cc2)c2ccccc2)CC1` (stereo not drawn) [Example 166, 4-chloro-N-(2-(1-(isobutylsulfonyl)piperidin-4-yl)-1-phenylethyl)benzamide], the IC50 was 100 nM.
`CC#CCOc1ccc(C(=O)NC(CC2CCN(C(=O)OC(C)(C)C)CC2)c2ccccc2)cc1F` (stereo not drawn) [Example 167, tert-butyl 4-(2-(4-(but-2-yn-1-yloxy)-3-fluorobenzamido)-2-phenylethyl)piperidine-1-carboxylate]: the IC50 was 100 nM.
The value for `CC(C)(C)OC(=O)N1CCC(CC(NC(=O)c2cc(Cl)cs2)c2ccccc2)CC1` (stereo not drawn) [Example 168, tert-butyl 4-(2-(4-chlorothiophene-2-carboxamido)-2-phenylethyl)piperidine-1-carboxylate] was 100 nM; that for `CCC(CC)c1nc(C(CC2CCN(C(=O)OC(C)(C)C)CC2)NC(=O)c2ccc(F)cc2)no1` (stereo not drawn) [Example 169, tert-butyl 4-(2-(4-fluorobenzamido)-2-(5-(pentan-3-yl)-1,2,4-oxadiazol-3-yl)ethyl)piperidine-1-carboxylate] was 100 nM; that for `CC(C)(C)OC(=O)N1CCC(C[C@H](Nc2ncc(-c3ccccc3)o2)C2CC2)CC1` [Example 170, (S)-tert-butyl 4-(2-cyclopropyl-2-((5-phenyloxazol-2-yl)amino)ethyl)piperidine-1-carboxylate] was 100 nM.
On to `CCCNc1nnc(C(CC2CCN(C(=O)OC(C)(C)C)CC2)NC(=O)c2ccc(Cl)s2)o1` (stereo not drawn) [Example 171, tert-butyl 4-(2-(5-chlorothiophene-2-carboxamido)-2-(5-(propylamino)-1,3,4-oxadiazol-2-yl)ethyl)piperidine-1-carboxylate], for which the IC50 was 100 nM.
`COC(=O)N1CCC(CC(NC(=O)c2ccc(F)cc2)c2ccccc2)CC1` (stereo not drawn) [Example 173, methyl 4-(2-(4-fluorobenzamido)-2-phenylethyl)piperidine-1-carboxylate]: the IC50 was 126 nM.
The value for `Cc1ccc(C(CC2CCN(C(=O)OC(C)(C)C)CC2)NC(=O)c2ccc(F)cc2)cn1` (stereo not drawn) [Example 174, tert-butyl 4-(2-(4-fluorobenzamido)-2-(6-methylpyridin-3-yl)ethyl)piperidine-1-carboxylate] was 126 nM; that for `CC(C)(C)OC(=O)N1CCC(CC(NC(=O)c2ccc3c(c2)OCO3)c2ccccc2)CC1` (stereo not drawn) [Example 175, tert-butyl 4-(2-(benzo[d][1,3]dioxole-5-carboxamido)-2-phenylethyl)piperidine-1-carboxylate] was 126 nM.
For `CC(C)(C)OC(=O)N1CCC(CC(NC(=O)c2ccc(F)cc2)c2ccc(=O)n(Cc3ccccc3)c2)CC1` (stereo not drawn) [Example 176, tert-butyl 4-(2-(1-benzyl-6-oxo-1,6-dihydropyridin-3-yl)-2-(4-fluorobenzamido)ethyl)piperidine-1-carboxylate], the IC50 was 126 nM.
Consider `CCOC(=O)N1CCC(C[C@@H](NC(=O)c2ccc(Cl)s2)C2CC2)CC1` [Example 177, (R)-ethyl 4-(2-(5-chlorothiophene-2-carboxamido)-2-cyclopropylethyl)piperdine-1-carboxylate], for which the IC50 was 126 nM.
The value for `CSc1ccc(C(=O)NC(CC2CCN(C(=O)OC(C)(C)C)CC2)c2ccccc2)cc1` (stereo not drawn) [Example 178, tert-butyl 4-(2-(4-(methylthio)benzamido)-2-phenylethyl)piperidine-1-carboxylate] was 126 nM; that for `Cc1csc(C(=O)NC(CC2CCN(C(=O)OC(C)(C)C)CC2)c2ccccc2)c1` (stereo not drawn) [Example 179, tert-butyl 4-(2-(4-methylthiophene-2-carboxamido)-2-phenylethyl)piperidine-1-carboxylate] was 126 nM.
The value for `C=Cc1ccc(C(=O)NC(CC2CCN(C(=O)OC(C)(C)C)CC2)c2ccccc2)s1` (stereo not drawn) [Example 180, tert-butyl 4-(2-phenyl-2-(5-vinylthiophene-2-carboxamido)ethyl)piperidine-1-carboxylate] was 126 nM.
For `CC(C)(C)OC(=O)N1CCC(CC(NC(=O)c2cccc3cc[nH]c23)c2ccccc2)CC1` (stereo not drawn) [Example 181, tert-butyl 4-(2-(1H-indole-7-carboxamido)-2-phenylethyl)piperidine-1-carboxylate], the IC50 was 158 nM.
Regarding `CC(C)(C)OC(=O)N1CCC(CC(NC(=O)c2cc3ccccc3s2)c2ccccc2)CC1` (stereo not drawn) [Example 182, tert-butyl 4-(2-(benzo[b]thiophene-2-carboxamido)-2-phenylethyl)piperidine-1-carboxylate], the IC50 was 158 nM.
The value for `COc1ccc([C@@H](CC2CCN(C(=O)OC(C)(C)C)CC2)NC(=O)c2ccc(F)cc2)cn1` [Example 183, (R)-tert-butyl 4-(2-(4-fluorobenzamido)-2-(6-methoxypyridin-3-yl)ethyl)piperidine-1-carboxylate] was 158 nM.
The value for `CC(C)NC(=O)N1CCC(CC(NC(=O)c2ccc(Cl)cc2)c2ccccc2)CC1` (stereo not drawn) [Example 184, 4-(2-(4-chlorobenzamido)-2-phenylethyl)-N-isopropylpiperidine-1-carboxamide] was 158 nM; that for `O=C(NC(CC1CCN(C(=O)OC2COC2)CC1)c1ccccc1)c1ccc(Cl)cc1` (stereo not drawn) [Example 185, oxetan-3-yl 4-(2-(4-chlorobenzamido)-2-phenylethyl)piperidine-1-carboxylate] was 158 nM; that for `O=C(NC(CC1CCN(C(=O)OC2CCOCC2)CC1)c1ccccc1)c1ccc(Cl)cc1` (stereo not drawn) [Example 186, tetrahydro-2H-pyran-4-yl 4-(2-(4-chlorobenzamido)-2-phenylethyl)piperidine-1-carboxylate] was 158 nM.
The value for `CC(C)(C)COC(=O)N1CCC(CC(NC(=O)c2ccc(Cl)cc2)c2ccccc2)CC1` (stereo not drawn) [Example 187, neopentyl 4-(2-(4-chlorobenzamido)-2-phenylethyl)piperidine-1-carboxylate] was 158 nM; that for `CC(C)OC(=O)N1CCC(C[C@@H](NC(=O)c2ccc(Cl)s2)C2CC2)CC1` [Example 188, (R)-isopropyl 4-(2-(5-chlorothiophene-2-carboxamido)-2-cyclopropylethyl)piperidine-1-carboxylate] was 158 nM.
Regarding `CC(C)(C)OC(=O)N1CCC(CC(NC(=O)c2ccc(C#N)nc2)c2ccccc2)CC1` (stereo not drawn) [Example 189, tert-butyl 4-(2-(6-cyanonicotinamido)-2-phenylethyl)piperidine-1-carboxylate], the IC50 was 200 nM.
The value for `CC(C)(C)OC(=O)N1CCC(CC(NC(=O)C2CCCCC2)c2ccccc2)CC1` (stereo not drawn) [Example 190, tert-butyl 4-(2-(cyclohexanecarboxamido)-2-phenylethyl)piperidine-1-carboxylate] was 200 nM; that for `Cc1ncc(C(=O)NC(CC2CCN(C(=O)OC(C)(C)C)CC2)c2ccccc2)s1` (stereo not drawn) [Example 191, tert-butyl 4-(2-(2-methylthiazole-5-carboxamido)-2-phenylethyl)piperidine-1-carboxylate] was 200 nM.
In the case of `CCCOc1ccc(C(=O)NC(CC2CCN(C(=O)OC(C)(C)C)CC2)c2ccccc2)cc1` (stereo not drawn) [Example 192, tert-butyl 4-(2-phenyl-2-(4-propoxybenzamido)ethyl)piperidine-1-carboxylate], the IC50 was 200 nM.
`O=C(NC(CC1CCN(S(=O)(=O)C2CCCC2)CC1)c1ccccc1)c1ccc(Cl)cc1` (stereo not drawn) [Example 193, 4-chloro-N-(2-(1-(cyclopentylsulfonyl)piperidin-4-yl)-1-phenylethyl)benzamide]: the IC50 is 200 nM.
The value for `CC(C)(C)OC(=O)N1CCC(CC(NC(=O)c2ccccc2O)c2ccccc2)CC1` (stereo not drawn) [Example 194, tert-butyl 4-(2-(2-hydroxybenzamido)-2-phenylethyl)piperidine-1-carboxylate] was 251 nM; that for `CC(C)(C)OC(=O)N1CCC(CC(NC(=O)c2ccc(O)cc2)c2ccccc2)CC1` (stereo not drawn) [Example 195, tert-butyl 4-(2-(4-hydroxybenzamido)-2-phenylethyl)piperidine-1-carboxylate] was 251 nM; that for `CC(C)(C)OC(=O)N1CCC(CC(NC(=O)c2ccc(O)c(F)c2)c2ccccc2)CC1` (stereo not drawn) [Example 196, tert-butyl 4-(2-(3-fluoro-4-hydroxybenzamido)-2-phenylethyl)piperidine-1-carboxylate] was 251 nM.
The value for `O=C(NC(CC1CCN(S(=O)(=O)N2CCCCC2)CC1)c1ccccc1)c1ccc(Cl)cc1` (stereo not drawn) [Example 197, 4-chloro-N-(1-phenyl-2-(1-(piperidin-1-ylsulfonyl)piperidin-4-yl)ethyl)benzamide] was 251 nM.
The value for `CC(C)(C)OC(=O)N1CCC(CC(NC(=O)c2ccc(F)cc2)c2nc(C3CCCC3)no2)CC1` (stereo not drawn) [Example 198, tert-butyl 4-(2-(3-cyclopentyl-1,2,4-oxadiazol-5-yl)-2-(4-fluorobenzamido)ethyl)piperidine-1-carboxylate] was 251 nM; that for `CC(C)(C)OC(=O)N1CCC(CC(NC(=O)c2cccc(Cl)c2)c2ccccc2)CC1` (stereo not drawn) [Example 199, tert-butyl 4-(2-(3-chlorobenzamido)-2-phenylethyl)piperidine-1-carboxylate] was 316 nM.
Take `CC(C)(C)OC(=O)N1CCC(CC(NC(=O)Nc2ccc(F)cc2)c2ccccc2)CC1` (stereo not drawn) [Example 200, tert-butyl 4-(2-(3-(4-fluorophenyl)ureido)-2-phenylethyl)piperidine-1-carboxylate]: the IC50 was 316 nM.
As to `CC(C)(C)OC(=O)N1CCC(CC(NC(=O)C23CCC(CC2)CC3)c2ccccc2)CC1` (stereo not drawn) [Example 201, tert-butyl 4-(2-(bicyclo[2.2.2]octane-1-carboxamido)-2-phenylethyl)piperidine-1-carboxylate], the IC50 was 316 nM.
The value for `COCCOc1ccc(C(CC2CCN(C(=O)OC(C)(C)C)CC2)NC(=O)c2ccc(F)cc2)cn1` (stereo not drawn) [Example 202, tert-butyl 4-(2-(4-fluorobenzamido)-2-(6-(2-methoxyethoxy)pyridin-3-yl)ethyl)piperidine-1-carboxylate] was 316 nM.

For the origin of these results see patent publication US20210078988A1, “MODULATORS OF INDOLEAMINE 2,3-DIOXYGENASE” (GLAXOSMITHKLINE INTELLECTUAL PROPERTY DEVELOPMENT LIMITED, priority 2017, published 2021).
